Results as given in patent publication US9067898B1, “Isothiazole derivatives as GPR120 agonists for the treatment of type II diabetes” (Janssen Pharmaceutica NV, priority 2014, dated 2015).

Experiments:
[1] = molecular target: T1, short form of the GPR120 receptor (GPR120S) (Homo sapiens, UniProt Q5NUL3); test: Human GPR120 DiscoveRx PathHunter Beta-Arrestin assay, Procedure β-arrestin B; type: cell-based; conditions: PathHunter CHO-K1 GPR120S β-Arrestin cell line, 5000 cells/well, read-out: hGPR120 β-arrestin B EC50
T1 construct: host or cells: PathHunter CHO-K1 GPR120S β-Arrestin Cell Line
T1 sequence (P32121 whole entry partner, one chain of several): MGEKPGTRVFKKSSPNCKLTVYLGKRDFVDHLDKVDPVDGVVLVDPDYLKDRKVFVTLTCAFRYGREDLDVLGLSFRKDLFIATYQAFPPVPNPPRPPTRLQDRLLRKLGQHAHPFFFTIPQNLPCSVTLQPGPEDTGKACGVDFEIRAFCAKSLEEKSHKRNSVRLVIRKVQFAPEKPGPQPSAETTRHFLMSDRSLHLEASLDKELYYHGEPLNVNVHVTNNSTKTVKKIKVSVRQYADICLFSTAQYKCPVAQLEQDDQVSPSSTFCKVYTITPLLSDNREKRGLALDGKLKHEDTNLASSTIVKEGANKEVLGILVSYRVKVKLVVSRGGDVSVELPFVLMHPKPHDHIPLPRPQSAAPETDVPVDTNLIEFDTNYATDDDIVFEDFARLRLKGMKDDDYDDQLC
Excerpt: The binding of an agonist (medium/long chain fatty acids or small molecule agonists) to the G-protein-coupled receptor GPR120 activates phospholipase C, leading to release of intracellular Ca^+2 through the generation of inositol 1,4,5-trisphosphate (InsP3 or IP3). GPR120 activation can also trigger intracellular signaling via recruitment of Beta-Arrestin. In the present method, agonist-induced activation of the human GPR120 receptor is monitored through the use of PathHunter CHO-K1 GPR120 Beta-Arrestin Cell Line engineered by DiscoveRx, as detailed below. The cell lines are designed to co-express both the ProLink/Enzyme Donor (PK)-tagged GPCR and the Enzyme […] (EA)-tagged Beta-Arrestin fusion proteins. Upon GPR120 receptor stimulation/activation, the EA-tagged Beta-Arrestin portion is translocated to the tagged receptor, where the two enzyme fragments are brought within close proximity. Under these conditions, these fragments can interact and form an active Beta-gal enzyme complex through Enzyme Fragment Complementation (EFC). This active Beta-gal complex can enzymatically hydrolyse the substrate to produce a detectable light signal; therefore, activation as a function of agonist concentration can be expressed as an EC50 value to determine relative compound activities. This in vitro assay therefore serves to assess compound agonist activity of the GPR120. Procedure β-Arrestin A: In Procedure β-arrestin A, the cell used were PathHunter CHO-K1 GPR120 β-Arrestin Cell Line, expressing the long form of human GPR120 (Genbank accession number NM 181745), with 3000 cells per well. Procedure β-Arrestin B: In Procedure 3-arrestin B the cells used were PathHunter CHO-K1 GPR120S β-Arrestin Cell Line, expressing the short form of the GPR120 receptor (Accession #NM_181745), with 5000 cells/well. Assay Procedure:
The selected CHO-K1 GPR120 β-Arrestin cells were cultured in Ham's F12 media supplemented with 10% fetal bovine serum (FBS), 1% Glutamine, lx p/s, 800 μg/mL G418 and 300 μg/mL Hygromycin B (for selection). Cell stocks were maintained and grown in a sub-confluent state using standard cell culture procedures. The day before the experiment, the cells were harvested with non-enzymatic cell dissociation buffer and re-suspended in complete growth media at the desired concentration. A Corning 384-plate was then seeded with the proper number of cells in a volume of 25 μL, per well. The seeded plates were incubated overnight at 37° C.
On the day of the experiment, the Assay Buffer containing (a) HBSS with Ca^++ and Mg^++, (b) 20 mM HEPES, and (c) 0.1% BSA stabilizer (pH 7.4) was prepared. The growth medium was gently removed from the cell plates and 20 μL of Assay Buffer added to each well. The plate was then incubated at 37° C. for 60 min. Test compounds were serially diluted in Assay Buffer to desired concentrations (more particularly to one or more of the following μM concentrations: 25, 12.5, 6.25, 3.125, 1.5625, 0.78125, 0.390625, 0.1953125, 0.09765625, 0.048828125, 0.024414063, 0.012207031). Five μL of compound dilution was then added to each well and the plate incubated at 37° C. for 90 min. The detection reagents were prepared according to the manufacture's instruction. Twelve μL of the detection reagents were added to each well and the plate incubated at room temperature for 60 min.
The plates were read on an EnVision instrument, using Protocol name: Luminescence, Plate type: 384 Costar, Measurement height: 3 mm, Measurement time: 1 s, Aperture: 384 Plate aperture. The % activity relative to the positive control was calculated using the following equation:
The % Activity values were plotted versus the concentration of test compound and fitted to a sigmoidal dose-response curve with a Hill slope=1 (fixed value) using nonlinear regression with GraphPad Prism 5.0 to calculate the EC50 values. […]

Human GPR120 short form = molecular target: T2, Human GPR120 short form (Homo sapiens, UniProt Q5NUL3); test: Human GPR120 calcium flux assay (FLIPR), Procedure Calcium A; type: cell-based; conditions: HEK-293 cells expressing human GPR120 short form, 2500 cells/well; read-out: GPR120 Ca2+ Assay A EC50
T2 construct: expressed in transfected cells
T2 sequence (Q5NUL3 1-361): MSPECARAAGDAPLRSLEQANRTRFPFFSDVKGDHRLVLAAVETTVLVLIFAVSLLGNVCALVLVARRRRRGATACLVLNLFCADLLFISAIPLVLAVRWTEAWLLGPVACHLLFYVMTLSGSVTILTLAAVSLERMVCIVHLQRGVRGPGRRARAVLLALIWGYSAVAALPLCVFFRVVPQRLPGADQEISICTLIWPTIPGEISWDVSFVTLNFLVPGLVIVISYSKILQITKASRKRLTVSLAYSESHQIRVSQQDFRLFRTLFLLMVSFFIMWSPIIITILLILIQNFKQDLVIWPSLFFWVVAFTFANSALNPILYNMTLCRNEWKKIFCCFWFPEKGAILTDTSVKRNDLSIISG
How it was run: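 HEK293 cells stably expressing the short isoform (NM_001195755.1), 2500/well, starved 1 h, then loaded with Fluo-4 NW plus probenecid (30 min 37 °C, 15 min RT). Compound solutions 0.012–100 μM, 0.2% DMSO final; FLIPR read 300 s after addition. EC50 from Fmax−Fmin fitted to variable-slope sigmoid (Hill <2).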

Row | Compound | EC50 [1] [nM] | EC50 (Human GPR120 short form) [nM]
1 | Cc1ccc(-c2snc(C(F)(F)F)c2COc2ccc(CCC(=O)O)c(C)c2C)c(C)c1 [Cpd 184, 3-(4-[[5-(2,4-dimethylphenyl)-3-(trifluoromethyl)-1,2-thiazol-4-yl]methoxy]-2,3-dimethylphenyl) propanoic acid] | 997 | 300
2 | Cc1ccc(-c2nsc(C(F)(F)F)c2COc2ccc(CCC(=O)O)c(C)c2C)cc1F [Cpd 109, 3-(4-[[3-(3-fluoro-4-methylphenyl)-5-(trifluoromethyl)-1,2-thiazol-4-yl]methoxy]-2,3-dimethylphenyl)propanoic acid] | 75 | 89
3 | Cc1c(CCC(=O)O)ccc(OCc2c(C3CC(F)(F)C3)nsc2C(F)(F)F)c1C [Cpd 137, 3-(4-[[3-(3,3-difluorocyclobutyl)-5-(trifluoromethyl)-1,2-thiazol-4-yl]methoxy]-2,3-dimethylphenyl) propanoic acid] | 413 | 137
4 | Cc1ccc(-c2nsc(C(F)(F)F)c2COc2c(F)cc(CCC(=O)O)cc2F)cc1F [Cpd 91, 3-(3,5-difluoro-4-[[3-(3-fluoro-4-methylphenyl)-5-(trifluoromethyl)-1,2-thiazol-4-yl]methoxy]phenyl)propanoic acid] | 31 | 69
5 | O=C(O)CCc1cc(F)c(OCc2c(-c3ccc(C(F)(F)F)cc3)nsc2C(F)(F)F)c(F)c1 [Cpd 121, 3-(3,5-difluoro-4-[[5-(trifluoromethyl)-3-[4-(trifluoromethyl)phenyl]-1,2-thiazol-4-yl]methoxy]phenyl)propanoic acid] | 51 | 108
6 | CCc1ccc(-c2nsc(C(F)(F)F)c2COc2c(F)cc(CCC(=O)O)cc2F)cc1F [Cpd 194, 3-(4-((3-(4-ethyl-3-fluorophenyl)-5-(trifluoromethyl)isothiazol-4-yl)methoxy)-3,5-difluorophenyl)propanoic acid] | 40 | 362
7 | Cc1ccc(-c2snc(Cl)c2COc2ccc(CCC(=O)O)c(C(F)(F)F)c2)c(F)c1 [Cpd 175, 3-(4-[[3-chloro-5-(2-fluoro-4-methylphenyl)-1,2-thiazol-4-yl]methoxy]-2-(trifluoromethyl)phenyl)propanoic acid] | 230 | 247
8 | 3-(4-((3-(2,4-difluorophenyl)-5-(trifluoromethyl)isothiazol-4-yl)methoxy)-3,5-difluorophenyl)propanoic acid [Cpd 174] | 1510 | 382
9 | Cc1ccc(-c2snc(C(F)(F)F)c2COc2c(F)cc(CCC(=O)O)cc2F)c(F)c1 [Cpd 95, 3-(3,5-difluoro-4-[[5-(2-fluoro-4-methylphenyl)-3-(trifluoromethyl)-1,2-thiazol-4-yl]methoxy]phenyl)propanoic acid] | 116 | 72
10 | O=C(O)CCc1ccc(OCc2c(-c3ccc(Cl)cc3)nsc2C(F)(F)F)cc1C(F)(F)F [Cpd 173, 3-(4-[[3-(4-chlorophenyl)-5-(trifluoromethyl)-4-yl]methoxy]-2-(trifluoromethyl)phenyl)propanoic acid] | 421 | 236
11 | Cc1ccc(-c2nsc(C(F)(F)F)c2COc2ccc(CCC(=O)O)c(C)c2C)c(F)c1 [Cpd 89, 3-(4-[[3-(2-fluoro-4-methylphenyl)-5-(trifluoromethyl)-1,2-thiazol-4-yl]methoxy]-2,3-dimethylphenyl)propanoic acid] | 416 | 67

More lines, now with the values ahead:

Row | EC50 [1] [nM] | EC50 (Human GPR120 short form) [nM] | Compound
12 | 195 | 370 | CC(Cc1cc(F)c(OCc2c(-c3ccc(F)cc3F)nsc2C(F)(F)F)c(F)c1)C(=O)O (centres unmarked) [Cpd 196, 3-(4-((3-(2,4-difluorophenyl)-5-(trifluoromethyl)isothiazol-4-yl)methoxy)-3,5-difluorophenyl)-2-methylpropanoic acid]
13 | 229 | 831 | Cc1c(CCC(=O)O)ccc(OCc2c(-c3ccc(C(F)(F)F)cc3)nsc2C(F)(F)F)c1C [Cpd 224, 3-(2,3-dimethyl-4-[[5-(trifluoromethyl)-3-[4-(trifluoromethyl)phenyl]-1,2-thiazol-4-yl]methoxy]phenyl)propanoic acid]
14 | 554 | 578 | O=C(O)CCc1ccc(OCc2c(C(F)(F)F)nsc2-c2ccc(Cl)cc2)cc1Cl [Cpd 208, 3-(2-chloro-4-[[5-(4-chlorophenyl)-3-(trifluoromethyl)-1,2-thiazol-4-yl]methoxy]phenyl)propanoic acid]
15 | 307 | 366 | CC(Cc1ccc(OCc2c(-c3ccc(Cl)cc3)nsc2C(F)(F)F)cc1)C(=O)O (centres unmarked) [Cpd 195, 3-(4-[[3-(4-chlorophenyl)-5-(trifluoromethyl)-1,2-thiazol-4-yl]methoxy]phenyl)-2-methylpropanoic acid]
16 | 622 | 423 | Cc1c(CCC(=O)O)ccc(OCc2c(C3CCC(F)(F)C3)nsc2C(F)(F)F)c1C (centres unmarked) [Cpd 199, 3-(4-[[3-(3,3-difluorocyclopentyl)-5-(trifluoromethyl)-1,2-thiazol-4-yl]methoxy]-2,3-dimethylphenyl)propanoic acid]
17 | 3780 | 867 | CCc1cc(OCc2c(Cl)nsc2-c2ccccc2C)ccc1CCC(=O)O [Cpd 227, 3-(4-[[3-chloro-5-(2-methylphenyl)-1,2-thiazol-4-yl]methoxy]-2-ethylphenyl)propanoic acid]
18 | 1940 | 405 | 3-(4-[[5-chloro-3-(4-chlorophenyl)thiophen-2-yl]methoxy]-2,3-dimethylphenyl) propanoic acid [Cpd 6]
19 | 118 | 89 | 3-(4-[[3-(4-ethylphenyl)-5-methoxy-1,2-thiazol-4-yl]methoxy]-2,3-dimethylphenyl)propanoic acid [Cpd 228]
20 | 2140 | 648 | CCc1cc(CCC(=O)O)c(C(F)(F)F)cc1OCc1c(Cl)nsc1-c1ccccc1C [Cpd 215, 3-(4-((3-chloro-5-(o-tolyl)isothiazol-4-yl)methoxy)-5-ethyl-2-(trifluoromethyl)phenyl)propanoic acid]
21 | 74 | 600 | CCc1ccc(-c2nsc(C(F)(F)F)c2COc2c(F)cc(CC(C)C(=O)O)cc2F)cc1F (centres unmarked) [Cpd 212, 3-(4-((3-(4-ethyl-3-fluorophenyl)-5-(trifluoromethyl)isothiazol-4-yl)methoxy)-3,5-difluorophenyl)-2-methylpropanoic acid]
22 | 819 | 274 | 3-(4-[[5-(4-chlorophenyl)-3-(trifluoromethyl)-1,2-thiazol-4-yl]methoxy]-2-(trifluoromethoxy)phenyl) propanoic acid [Cpd 159]
